Source: patent US20090197906A1, “REVERSION OF MALIGNANT PHENOTYPE WITH 9-HYDROXY ELLIPTICINE DERIVATIVES” (priority 2006, published 2009)
Where two headings read alike, the source gives them in different places.

Columns and labels:
[1] = test system: NIH 3T3 EF cells; assay: F-actin network rescue, FITC-phalloidin fluorescence microscopy; type: cell-based; conditions: non cytotoxic concentrations (100 nM and 200 nM), three days
Protocol: Malignant NIH 3T3 EF cells were seeded onto glass cover slips at a density of 2000 cells per cm^2. The next day, BA016DD537 was applied to NIH 3T3 EF cells at various non cytotoxic concentrations (100 nM and 200 nM). Three days later, cells were fixed for 10 min in PBS containing 3.7% formaldehyde at 4° C. before examination with a fluorescence microscope. The formaldehyde solution was neutralized with 50 mM NH4Cl. Extraction was carried out for 4 min with 0.4% Triton X-100 in PBS. Cells were incubated for 1 h with blocking buffer (3% bovine serum albumin in PBS) and then for 20 min with FITC-phalloidin (Sigma) at room temperature. Cover slips were mounted in Vectashieldk (Zymed) and observed through a fluorescence microscope (Nikon).

[2] = test system: Melanoma B16 cells; assay: antitumor activity, i.p. grafted B16 melanoma, survival; type: in vivo, B6D2F1 mice
Protocol: Antitumor activity against B16 melanoma can be assessed in mice using i.p. graft of malignant cells followed by i.p. treatment. This type of protocol which by-pass various biodisponibility parameters gives information roughly on the maximal antitumor activity which can be expected for a given tumor.
Melanoma B16 cells (4×10^5) were injected in B6D2F1 mice using i.p. route at J0. Drugs, dissolved in sterile distilled water (0.5 ml) were injected daily using as well i.p. route from J1 to J9 at various concentrations. Control mice received distilled water only according the same protocol.
Treated and control mice were counted daily. TIC (mean survival of treated mice/mean survival of control mice) was calculated at J9.

[3] = test system: 451 Lu; assay: MTT cell proliferation assay; type: cell-based, human; conditions: 3 days, read-out: Cytotoxic effect (MTT) IC50
Protocol: (§1) Growth studies were performed using the [3-(4,5 dimethylthiazol-2-yl)-2,5-diphenyl-2H-tetrazolium bromide] (Sigma) calorimetric assay.
(§2) About 1500 to 5000 cells, according to the cell line, were seeded in a 96-well culture plate 24 hours before adding increasing concentrations of BA016DD537 or BA016FZ539. The plate was incubated at 37° C. for 3 days. 10 μl MTT stock solution (5 mg/ml in phosphate buffer saline) was added to 90 μl of complete medium in each well, the incubation was continued for 3 h at 37° C. 100 μl of lysis buffer (10% sodium dodecyl sulfate, 1% HCl 1N; pH 4.7) was added to each well, and the plate was incubated overnight. The absorbance was determined using an Integrated EIA Management System (Labsystem) at a wavelength of 570 nm. The proliferation rates were calculated from the OD readings using the untreated cells as 100%.

[4] = test system: A375; assay: MTT cell proliferation assay; type: cell-based, human; conditions: A375, 3 days; read-out: Cytotoxic effect (MTT) IC50
Protocol: as §1, §2

[5] = test system: Mia Paca-2; assay: MTT cell proliferation assay; type: cell-based, human
Protocol: as §1, §2

[6] = test system: 1205 Lu; assay: MTT cell proliferation assay; type: cell-based, human; conditions: 3 days, read-out: Cytotoxic effect (MTT) IC50
Protocol: as §1, §2

[7] = test system: HT144; assay: MTT cell proliferation assay; type: cell-based, human; conditions: HT144, 3 days; read-out: Cytotoxic effect (MTT) IC50
Protocol: as §1, §2

[8] = test system: PANC-1; assay: MTT cell proliferation assay; type: cell-based, human
Protocol: as §1, §2

[9] = test system: C9; assay: MTT cell proliferation assay; type: cell-based, human; conditions: C9, 3 days; read-out: Cytotoxic effect (MTT) IC50
Protocol: as §1, §2

[10] = test system: SKMEL28; assay: MTT cell proliferation assay; type: cell-based, human; conditions: SKMEL28, 3 days; read-out: Cytotoxic effect (MTT) IC50
Protocol: as §1, §2

[11] = test system: B16F10 cell pulmonary metastases; assay: antimetastatic activity, B16F10 pulmonary metastases after i.v. injection; type: in vivo, mice
Protocol: In order to assess the anti-invasive property, the effect of 2-(beta piperidino-2-ethyl)-9-hydroxyellipticinium methanesulfonate on this process has been tested.
100 μl of a B16F10 cellular suspension (4.10^5 cells) were injected using i.v. route into the retro-orbital sinus of the mice. The 2-(beta piperidino-2-ethyl)-9-hydroxyellipticinium methanesulfonate (BA016FZ539) solution was administrated i.v to mice 24 hours and 72 hours after cell injection at a dose of 5 mg/Kg (first experiment) and 7.5 mg/kg (second experiment). In control group, mice were injected iv with physiological serum. Seven days later, the mice were sacrificed, the lungs were excised and metastatic nodules were counted under a dissecting microscope.

[12] = test system: NCI-H510; assay: SRB (sulforhodamine B) cell proliferation assay; type: cell-based, human; conditions: NCI-H510, viability 72 h, mean +/− SEM
Protocol: (§3) Growth studies were performed using the Sulforhodamine B (SRB) calorimetric assay (Sigma).
(§4) SRB assay is used for cell density determination based on the measurement of cellular protein content. This method has been optimized for toxicity screening of compounds in adherent cells in a 96-well format (Skehan et al., Proc. Amer. Assoc. Cancer Res. 1989, 30:2436).
(§5) About 50 000 NCI-H510, NCI-H446 or NCI-H187 cells were seeded in a 96-well culture plate while adding increasing concentrations of BA016FZ539.
(§6) After an incubation period, cell monolayers are fixed with 10% (wt/vol) trichloroacetic acid and stained for 30 min, after which the excess dye is removed by washing repeatedly with 1% (vol/vol) acetic acid. The protein-bound dye is dissolved in 10 mM Tris base solution for optic density determination (OD) at 510 nm using a microplate reader.
(§7) The proliferation rates were calculated from the OD readings using the untreated cells as 100%.

[13] = test system: NCI-H446; assay: SRB (sulforhodamine B) cell proliferation assay; type: cell-based, human; conditions: NCI-H446, viability 72 h, mean +/− SEM
Protocol: as §3, §4, §5, §6, §7

[14] = test system: NCI-H187; assay: SRB (sulforhodamine B) cell proliferation assay; type: cell-based, human; conditions: NCI-H187, viability 72 h, mean +/− SEM
Protocol: as §3, §4, §5, §6, §7

Cc1c2cc[n+](CCN3CCCCC3)cc2c(C)c2c1[nH]c1ccc(O)cc12.[Cl-] [BA016DD537, 2-(β-piperidinoethyl)-9-hydroxyellipticinium chloride] was tested. Which “rebuilding of actin network / morphology” value [1] did it give?
Its value is “able to rebuilt actin network in tumor cells at non cytotoxic concentration”.

What about the “T/C (%) (mean survival of treated mice/mean survival of control mice)” value ([2]; 0.39 mg/kg/inj. i.p. daily J1 to J9) of the same compound?
The value was 133%.

And the “T/C (%) (mean survival of treated mice/mean survival of control mice)” value ([2]; 0.78 mg/kg/inj. i.p. daily J1 to J9)?
The value was 149%.

And the “T/C (%) (mean survival of treated mice/mean survival of control mice)” value ([2]; 1.56 mg/kg/inj. i.p. daily J1 to J9)?
The value was 168%.

What about the “T/C (%) (mean survival of treated mice/mean survival of control mice)” value ([2]; 3.12 mg/kg/inj. i.p. daily J1 to J9) of the same compound?
The value was 217%.

And the “T/C (%) (mean survival of treated mice/mean survival of control mice)” value ([2]; 6.25 mg/kg/inj. i.p. daily J1 to J9)?
Its value is 196%.

And the “T/C (%) (mean survival of treated mice/mean survival of control mice)” value ([2]; 7.5 mg/kg/inj. i.p. daily J1 to J9)?
The value was 210%.

What about the “T/C (%) (mean survival of treated mice/mean survival of control mice)” value ([2]; 10 mg/kg/inj. i.p. daily J1 to J9) of the same compound?
Its value is 87%.

And the “antitumor activity against B16 melanoma (T/C>125% = significant)” value ([2]; i.p. graft, i.p. treatment)?
Its value is “marked antitumor activity”.

CS(=O)(=O)[O-].Cc1c2cc[n+](CCN3CCCCC3)cc2c(C)c2c1[nH]c1ccc(O)cc12 [BA016FZ539, 2-(betapiperidino-2-ethyl)-9-hydroxyellipticinium methanesulfonate] was tested. Which IC50 [3] did it give?
The IC50 was 4.2 µM.

What about the IC50 [4] of the same compound?
The IC50 was 2.9 µM.

And the IC50 ([5]; MIA PaCA-2, viability 72 h, mean +/− SEM (Example 9), read-out: IC50 (μM) MTT)?
The IC50 was 7.58 µM.

What about the IC50 ([5]; Mia Paca-2, 3 days, read-out: Cytotoxic effect (MTT) IC50) of the same compound?
Its IC50 is 7.6 µM.

And the IC50 [6]?
The IC50 was 1.6 µM.

What about the IC50 [7] of the same compound?
Its IC50 is 9 µM.

What about the IC50 ([8]; PANC-1, 3 days, read-out: Cytotoxic effect (MTT) IC50) of the same compound?
Its IC50 is 22 µM.

What about the IC50 ([8]; PANC-1, viability 72 h (Example 9), read-out: IC50 (μM) MTT) of the same compound?
Its IC50 is 22 µM.

What about the IC50 [9] of the same compound?
The IC50 was 2.1 µM.

And the IC50 [10]?
The IC50 was 10.7 µM.

What about the “Inhibition of pulmonary metastases development (% of control values)” value ([11]; Experiment 1, 5 mg/kg/inj. i.v. J1, J3, p = 0.0904) of the same compound?
Its value is 21% (p = 0.0904).

And the “Inhibition of pulmonary metastases development (% of control values)” value ([11]; Experiment 2, 7.5 mg/kg/inj. i.v. J1, J3, p = 0.3269)?
Its value is 39.6% (p = 0.3269).

What about the IC50 [12] of the same compound?
Its IC50 is 5.8 µM.

What about the IC50 [13] of the same compound?
Its IC50 is 22.4 µM.

What about the IC50 [14] of the same compound?
The IC50 was 16.9 µM.
